For one series, the system named is Fluc (HeLa). Nature of the series: Sensitivity of live reporter cell detection (LOD of cell number). The class given is cell-based, human. Conditions: for Limit of detection (LOD), cells: Fluc (HeLa).
In the next series the test system is SLR. Kind of series: BL emission spectra of luciferase-luciferin reactions. The class given is biochemical, Phrixothrix hirtus. Conditions: 100 mM HEPES pH 8.0, 25 °C. As to the method: (§1) 1.5 Bioluminescence characterizations
(§2) Reactions of luciferases, including Photinus pyralis luciferase (Fluc), Phrixothrix hirtus luciferase (SLR), Pyrearinus termitilluminans […]
(§3) mM D-LH 2 analogues, 3 mM ATP, 6 mM MgCl2, and 10 µM luciferase in 0.2 ml of 100 mM HEPES-NaOH pH 8.0. The bioluminescence (BL) emission characteristics were recorded using a microplate reader in a BL mode (Thermo Scientific, Varioskan, LUX multimode). […]
(§4) sphere-based multichannel spectrometer with a charge-coupled device (CCD) detector. […]

Another series has as its system Pmluc-WT. Described as above. The class given is biochemical, Pyrocoelia miyako. Particulars: 100 mM HEPES pH 8.0, 25 °C. On the procedure: as §1, §2, §3, §4
For a further series, the system named is Fluc (HepG2). Kind of series: Sensitivity of live reporter cell detection (LOD of cell number). The class given is cell-based, human. Particulars: 100 µM, 30 min.
The subject of another series is SLR (HeLa). The series is described as above. The class given is cell-based, human.
The nature of series [1]: Absorption and fluorescence spectra of luciferins. Conditions: 100 mM HEPES pH 8.0, 25 °C. The class given is physicochemical. As to the method:
2.6 Spectra of firefly luciferins
spectrophotometer (Agilent technologies, Cary 100 UV Vis, Cary Series UV-Vis Spectrophotometer).
were recorded by a microplate reader (Thermo Scientific, Varioskan, LUX multimode) in fluorescence mode. The reactions of D-LH 2 […]
Supplementary Table S5. […]
[e] ND denotes “not detectable”. […]

In series [2] the target is T1, Fluc (Photinus pyralis, UniProt P08659). Kind of series: Bioluminescence quantum yield measurement. The class given is biochemical. As to the method: as §1, §2
T1 sequence (P08659 whole entry): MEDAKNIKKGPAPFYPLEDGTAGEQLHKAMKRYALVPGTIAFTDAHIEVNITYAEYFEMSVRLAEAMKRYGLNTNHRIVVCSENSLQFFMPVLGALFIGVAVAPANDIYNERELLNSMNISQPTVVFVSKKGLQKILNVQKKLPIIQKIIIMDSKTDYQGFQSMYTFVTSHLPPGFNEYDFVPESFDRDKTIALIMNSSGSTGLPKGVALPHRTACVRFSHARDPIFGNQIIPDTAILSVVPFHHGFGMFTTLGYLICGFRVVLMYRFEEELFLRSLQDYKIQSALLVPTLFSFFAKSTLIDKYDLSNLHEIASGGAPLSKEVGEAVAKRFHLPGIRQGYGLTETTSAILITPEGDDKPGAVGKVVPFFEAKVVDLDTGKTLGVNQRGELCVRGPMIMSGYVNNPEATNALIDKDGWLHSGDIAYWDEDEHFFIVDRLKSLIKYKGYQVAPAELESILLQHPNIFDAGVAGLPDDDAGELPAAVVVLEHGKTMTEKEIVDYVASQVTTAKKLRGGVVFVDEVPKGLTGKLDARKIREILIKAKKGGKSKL
(§5) mM D-LH 2 analogues, 3 mM ATP, 6 mM MgCl2, and 10 µM luciferase in 0.2 ml of 100 mM HEPES-NaOH pH 8.0. […]
(§6) A reference light source was used for calibrating a sphere spectrometer equipped with a cooled CCD detector.
(§7) The absolute responsivity of each luciferase-luciferin reaction was calculated based on a linear standardization between total photon flux measured using the sphere spectrometer equipped with a cooled CCD detector and relative count values measured by a luminometer. Total photons emitted from the bioluminescence reaction of each luciferase-luciferin pair were measured using a calibrated luminometer. A reaction containing 0.5-5 nM of each luciferin, 3 mM ATP, 3 mM MgCl2 in 100 mM Tris-HCl (total volume of 200 µl) was placed into the luminometer and background signals were recorded. The reaction was then initiated by adding 20 µl of 0.5 […]
(§8) mM purified luciferases into the reaction tube and the bioluminescence signals were monitored until it decayed to the background level.

Another series concerns Pmluc-N230S. Kind of series: Bioluminescence quantum yield measurement. The class given is biochemical, Pyrocoelia miyako. As to the method: as §1, §2, §5, §6, §7, §8
A further series relates to SLR (HepG2). Kind of series: Sensitivity of live reporter cell detection (LOD of cell number). The class given is cell-based, human.
Series [3] deals with SLR-expressing HeLa cells. Nature of the series: Real-time BL monitoring of live cells.
Procedure: plasmids and Lipofectamine 3000 were then combined and incubated for 30 minutes to allow formation of DNA and lipid complexes.
The DNA-lipid complexes were added directly to each well of the empty plate. 1.5 × 10⁵ cells (HepG2 and HeLa cells) were then suspended
in 150 µL of DMEM supplemented with 10% FBS were added directly into the transfection mixture in each well. The plate was gently
agitated to ensure even distribution and incubated at 37°C in a humidified 5% CO₂ incubator. The reporter cells obtained at this stage
were ready for further investigation of their bioluminescence with D-LH2 analogues.
2c), 10% FBS and 25 mM HEPES-NaOH (pH 7.0) was added and the BL signals were monitored with F0 (no filter) and F2 (red filter, >620
nm long-pass filter) by a luminometer (ATTO, Kronos HT, WSL-1563) and while maintaining the cells with 5% CO2 at 37 °C.
Series [4] has as its target T1, Fluc. Kind of series: Steady-state kinetics of luciferase reactions (luminometer). The class given is biochemical. Particulars: for appKm: pH 8.0, 25 °C; for Substrate inhibition: concentration range tested 0-300. On the procedure: as §1, §2, §3
BL of the
(§9) The reactions were initiated by mixing 25 µl of premixed solution of luciferases/D-LH 2 analogues with 125 µl of 3 mM ATP and 6 mM MgCl2 in 100 mM HEPES-NaOH (pH 8.0). The light intensity (relative light unit, RLU) during 0-300 sec was then collected to represent the overall luciferase activity which was further used for calculating kinetic parameters from the Michaelis-Menten equation. […]

Another series concerns Eluc. The description is as above. The class given is biochemical, Pyrearinus termitilluminans. Particulars: for Substrate inhibition: concentration range tested 0-300; for appKm: pH 8.0, 25 °C. On the procedure: as §1, §2, §3
BL of the
as §9

Series [5] relates to stably Fluc-expressing HepG2 cells. Nature of the series: Real-time BL monitoring of live cells. The class given is cell-based, human. Particulars: Fluc HepG2, 100 µM; for Time at which the highest BL signals were achieved: monitored for 3 days.
Setting [6] is: F2 (red filter, >620 nm long-pass).
[7] abbreviates: Fluc-expressing HeLa, F0 filter.

Each structure is given as a SMILES string. “And” between values parts separate entries of the source, which are not always exact repeats. Equal entries are not always repeated. Where two headings read alike, the source gives them in different places. Bounds are passed on as bounds.

Consider `O=C(O)[C@H]1CSC(c2nc3ccc(O)cc3s2)=N1` [Compound 2a, D-luciferin, reference compound], for which the “Limit of detection (LOD), cells” value with Fluc (HeLa) (F0 (no filter)) worked out at 4661 cells; in the series on Fluc (HeLa) (F2 (red filter)), 997 cells; with Fluc (HepG2) (F0 (no filter)) it was 601 cells; with Fluc (HepG2) (setting [6]) it was 897 cells; in the series on SLR (HeLa) (F0 (no filter)) it was 1352 cells; in the series on SLR (HeLa) (F2 (red filter)) it was 1268 cells. For the same molecule, the “Limit of detection (LOD), cells” value with SLR (HepG2) (F0 (no filter)) was found to be 802 cells; in the series on SLR (HepG2) (F2 (red filter)), 1071 cells. The figures for the “Bioluminescence wavelength (BLλ)” value in the series with SLR and with Pmluc-WT were 625 nm and 554 nm, respectively. Further, in series [1], the “Absorption (λmax)” value is recorded as 327 nm. Also, the “Fluorescence (λem)” value in [1] was 543 nm and 523–560 nm. In addition, the Quantum yield at Fluc [2] is 0.44 and 0.44 ± 0.04; in the series with Pmluc-N230S it was 0.16 and 0.160 ± 0.018. Besides, the “Time BL signals are prolonged before signal decreasing” value in series [3] is listed as “up to 10 h”. Further, the appKm is 3.3 µM on Fluc [4] and 0.1 µM in the series on Eluc. In the series on Eluc, the Substrate inhibition was > 1e+06 µM. The “Time at which the highest BL signals were achieved” value in series [5] is on record as 44 h.
For the molecule `Cc1cc2nc(C3=N[C@@H](C(=O)O)CS3)sc2cc1O` [Compound 2b, 5’-methyl-D-luciferin], the “Limit of detection (LOD), cells” value in the series on Fluc (HeLa) (F0 (no filter)) came to 1457 cells; in the series on Fluc (HeLa) (F2 (red filter)), 415 cells; in the series on Fluc (HepG2) (setting [6]) it was 795 cells; in the series on SLR (HeLa) (F0 (no filter)) it was 973 cells; in the series on SLR (HeLa) (F2 (red filter)) it was 826 cells; in the series on SLR (HepG2) (F0 (no filter)) it was 643 cells. For the same molecule, the “Limit of detection (LOD), cells” value with SLR (HepG2) (F2 (red filter)) is reported as 783 cells. For the same molecule, the “Bioluminescence wavelength (BLλ)” value in the series on SLR was 626 nm; in the series with Pmluc-WT, 608 nm. In [1], the “Absorption (λmax)” value was 323 nm. In addition, the “Fluorescence (λem)” value in [1] is 523 nm and 523–560 nm. For the same molecule, the Quantum yield at Fluc [2] is 0.52 and 0.52 ± 0.01; in the series on Pmluc-N230S, 0.17 and 0.170 ± 0.034. Also, in [3] (SLR-expressing HeLa, 100 µM), the “Time BL signals are prolonged before signal decreasing” value is “up to 10 h”. The Substrate inhibition at Fluc [4] is > 10.0 µM; in the series on Eluc, > 8 µM. The appKm was 3.1 µM at Fluc [4] and 0.7 µM in the series on Eluc. Moreover, the “Highest signal obtained at faster rate than that of 2a” value in series [5] is recorded as 1.2 fold. For the same molecule, the “Time at which the highest BL signals were achieved” value in series [5] came out at 35 h.
On to `Cc1cc2nc(C3=N[C@@H](C(=O)O)CS3)sc2c(C)c1O` [Compound 2c, 5’,7’-di-methyl-D-luciferin], for which the “Limit of detection (LOD), cells” value in the series with Fluc (HeLa) (F2 (red filter)) is given as 350 cells; in the series with Fluc (HepG2) (F0 (no filter)) it was 713 cells; in the series with SLR (HeLa) (F0 (no filter)), 1437 cells; in the series on SLR (HeLa) (F2 (red filter)), 707 cells; with SLR (HepG2) (F0 (no filter)), 500 cells; with SLR (HepG2) (F2 (red filter)), 613 cells. Moreover, the “Sensitivity higher than that of 2a” value is ~13.0 fold with Fluc (HeLa) (setting [7]) and “about 2.8 fold” with Fluc (HeLa) (Fluc-expressing HeLa, F2 filter). For the same molecule, the “Sensitivity higher than that of 2b” value in the series with Fluc (HeLa) (setting [7]) is given as “about 4.1 fold”. The “Bioluminescence wavelength (BLλ)” value with SLR is 634 nm; in the series with Pmluc-WT, 631 nm. Besides, the “Absorption (λmax)” value in [1] is 334 nm. In addition, the “Fluorescence (λem)” value in series [1] is 560 nm and 523–560 nm. Besides, the Quantum yield on Fluc [2] is 0.20 and 0.200 ± 0.007; with Pmluc-N230S, 0.15 and 0.150 ± 0.014. In series [3] (SLR-expressing HeLa, 100 µM), the “Time BL signals are prolonged before signal decreasing” value is given as “up to 18 h”. The Substrate inhibition at Fluc [4] and in the series on Eluc was > 12.5 µM throughout. The appKm at Fluc [4] came to 2.5 µM; in the series on Eluc, 3.5 µM. Besides, the Relative kcat at Fluc [4] (relative to 2a compound) was found to be 67.8; in the series on Eluc (relative to 2a compound), 0.3. Moreover, in series [5], the “Highest signal obtained at faster rate than that of 2a” value turned out to be 7.3 fold. Besides, the “Time at which the highest BL signals were achieved” value in series [5] was found to be 6 h.
